Experimental data as given in patent US11000033B2, “Ketone or oxime compound, and herbicide” (NISSAN CHEMICAL CORPORATION, priority 2014, dated 2021).

Tests used:
Format in all cases: in vivo
[1] = tested on: Setaria viridis; assay: Test Example 4: herbicidal effect by soil treatment (symbol G); conditions: for Herbicidal effect grade, G: Setaria viridis / G (Setaria viridis) herbicidal effect grade: application herbicide amount 320 g/ha; for G: Setaria viridis, herbicidal effect grade: 320 g/ha
In short: (§1)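 Seeds were sown in sterilized diluvial soil, covered with about 1.5 cm of soil, and the soil surface was sprayed with a water-diluted emulsion of the compound at a predetermined rate. Plants grew in a greenhouse at 25° C. to 30° C.; effects were scored visually 3 weeks after application.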

[2] = tested on: Chenopodium album; assay: Test Example 4: herbicidal effect by soil treatment (symbol O); conditions: application herbicide amount 320 g/ha
In short: as §1

[3] = tested on: Galium spurium; assay: Test Example 4: herbicidal effect by soil treatment (symbol Q); conditions: for Herbicidal effect grade, Q: Galium spurium / Q (Galium spurium) herbicidal effect grade: application herbicide amount 320 g/ha; for Q: Galium spurium, herbicidal effect grade: 320 g/ha
In short: as §1

[4] = tested on: Veronica persica; assay: Test Example 4: herbicidal effect by soil treatment (symbol R); conditions: for Herbicidal effect grade, R: Veronica persica / R (Veronica persica) herbicidal effect grade: application herbicide amount 320 g/ha; for R: Veronica persica, herbicidal effect grade: 320 g/ha
In short: as §1

[5] = tested on: rapeseed; assay: Test Example 4: effect on crop by soil treatment (symbol g); conditions: for Effect on crop grade, g: rapeseed / g (rapeseed) effect on crop grade: application herbicide amount 320 g/ha; for g: rapeseed, effect grade on crop: 320 g/ha
In short: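 Plants grew in a 25° C. to 30° C. greenhouse after spot-sowing of seeds, including beet, rapeseed, wheat and rice, into sterilized diluvial soil under roughly 1.5 cm of cover soil.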

[6] = tested on: Amaranthus retroflexus; assay: Test Example 5: herbicidal effect by foliage application, plastic box (symbol N); conditions: 320 g/ha, 3 weeks after application
In short: (§2)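 Leaf-applied emulsion, water-diluted to a preset herbicide dose, on two-week-old seedlings raised in a 25° C. to 30° C. greenhouse; injury rated at 3 weeks using earlier criteria.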

[7] = tested on: Chenopodium album; assay: Test Example 5: herbicidal effect by foliage application, plastic box (symbol O); conditions: 320 g/ha, 3 weeks after application
In short: as §2

[8] = tested on: Veronica persica; assay: Test Example 5: herbicidal effect by foliage application, plastic box (symbol R); conditions: 320 g/ha, 3 weeks after application
In short: as §2

[9] = tested on: Monochoria vaginalis; assay: Test Example 1: herbicidal activity, application before weed generation in submerged conditions (symbol C); conditions: application herbicide amount 320 g/ha
In short: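 In a flooded pot test with alluvial soil, the emulsion-formulated compound was diluted with water to a predetermined amount and applied to the floodwater immediately on the sowing day. Pots were held in a greenhouse at 25–30 °C for 3 weeks before each weed was rated.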

SMILES	Herbicidal effect grade, C: Monochoria vaginalis [9]	G (Setaria viridis) herbicidal effect grade [1]	Q (Galium spurium) herbicidal effect grade [3]	R (Veronica persica) herbicidal effect grade [4]	g (rapeseed) effect on crop grade [5]	N: Amaranthus retroflexus, herbicidal effect grade [6]	O: Chenopodium album, herbicidal effect grade [7]	R: Veronica persica, herbicidal effect grade [8]	O (Chenopodium album) herbicidal effect grade [2]	other results
CC(=O)CC1CC(O)=C(c2c(C)cc(-c3ncccn3)cc2C)C1=O (centres unmarked) [7-017]										Herbicidal effect grade, G: Setaria viridis [1]: 0 (Herbicidal ratio of 5% or lower (almost no effect)); Herbicidal effect grade, O: Chenopodium album [2]: 0 (Herbicidal ratio of 5% or lower (almost no effect)); Herbicidal effect grade, Q: Galium spurium [3]: 0 (Herbicidal ratio of 5% or lower (almost no effect)); Herbicidal effect grade, R: Veronica persica [4]: 0 (Herbicidal ratio of 5% or lower (almost no effect)); Effect on crop grade, g: rapeseed [5]: 0 (Herbicidal ratio of 5% or lower (almost no effect)); N: Amaranthus retroflexus, herbicidal effect (criteria of Test Example 1) [6]: 0 (Herbicidal ratio of 5% or lower (almost no effect)); O: Chenopodium album, herbicidal effect (criteria of Test Example 1) [7]: 0 (Herbicidal ratio of 5% or lower (almost no effect)); R: Veronica persica, herbicidal effect (criteria of Test Example 1) [8]: 0 (Herbicidal ratio of 5% or lower (almost no effect))
CON=C(C)CC1CC(OC(=O)COc2cccc(OC)c2)=C(c2c(C)cc(C)cc2C)C1=O (centres unmarked) [1-068]	3 (Herbicidal ratio of 40% or higher and lower than 70%)	5 (Herbicidal ratio of 90% or more (almost completely withered))	0 (Herbicidal ratio of 5% or lower (almost no effect))	0 (Herbicidal ratio of 5% or lower (almost no effect))	4 (Herbicidal ratio of 70% or higher and lower than 90%)	4 (Herbicidal ratio of 70% or higher and lower than 90%)	1 (Herbicidal ratio of 5% or higher and lower than 20%)	3 (Herbicidal ratio of 40% or higher and lower than 70%)		
CON=C(C)CC1CC(OC(=O)COc2ccccc2[N+](=O)[O-])=C(c2c(C)cc(C)cc2C)C1=O (centres unmarked) [1-071]	0 (Herbicidal ratio of 5% or lower (almost no effect))	5 (Herbicidal ratio of 90% or more (almost completely withered))	0 (Herbicidal ratio of 5% or lower (almost no effect))	0 (Herbicidal ratio of 5% or lower (almost no effect))	4 (Herbicidal ratio of 70% or higher and lower than 90%)	0 (Herbicidal ratio of 5% or lower (almost no effect))	1 (Herbicidal ratio of 5% or higher and lower than 20%)	1 (Herbicidal ratio of 5% or higher and lower than 20%)		
CON=C(CC1CC(O)=C(c2c(C)cc(C)cc2C)C1=O)c1ccccc1 (centres unmarked) [1-047]	0 (Herbicidal ratio of 5% or lower (almost no effect))	0 (Herbicidal ratio of 5% or lower (almost no effect))	0 (Herbicidal ratio of 5% or lower (almost no effect))	0 (Herbicidal ratio of 5% or lower (almost no effect))		0 (Herbicidal ratio of 5% or lower (almost no effect))	0 (Herbicidal ratio of 5% or lower (almost no effect))	0 (Herbicidal ratio of 5% or lower (almost no effect))	0 (Herbicidal ratio of 5% or lower (almost no effect))	
CON=C(C)CC1CC(OC(=O)C(C)Oc2ccc(Oc3cnc4cc(Cl)ccc4n3)cc2)=C(c2c(C)cc(C)cc2C)C1=O (centres unmarked) [1-087]	1 (Herbicidal ratio of 5% or higher and lower than 20%)									G: Setaria viridis, herbicidal effect grade [1]: 5 (Herbicidal ratio of 90% or more (almost completely withered)); Q: Galium spurium, herbicidal effect grade [3]: 0 (Herbicidal ratio of 5% or lower (almost no effect)); R: Veronica persica, herbicidal effect grade [4]: 0 (Herbicidal ratio of 5% or lower (almost no effect)); g: rapeseed, effect grade on crop [5]: 5 (Herbicidal ratio of 90% or more (almost completely withered)); N: Amaranthus retroflexus, herbicidal effect (criteria 0-5) [6]: 4 (Herbicidal ratio of 70% or higher and lower than 90%); O: Chenopodium album, herbicidal effect (criteria 0-5) [7]: 0 (Herbicidal ratio of 5% or lower (almost no effect)); R: Veronica persica, herbicidal effect (criteria 0-5) [8]: 3 (Herbicidal ratio of 40% or higher and lower than 70%)
CON=C(C)CC1CC(OC(=O)C(C)(C)Oc2ccc(Cl)cc2)=C(c2c(C)cc(C)cc2C)C1=O (centres unmarked) [1-051]	0 (Herbicidal ratio of 5% or lower (almost no effect))	5 (Herbicidal ratio of 90% or more (almost completely withered))	0 (Herbicidal ratio of 5% or lower (almost no effect))		4 (Herbicidal ratio of 70% or higher and lower than 90%)	1 (Herbicidal ratio of 5% or higher and lower than 20%)	0 (Herbicidal ratio of 5% or lower (almost no effect))	0 (Herbicidal ratio of 5% or lower (almost no effect))	0 (Herbicidal ratio of 5% or lower (almost no effect))	
CON=C(C)CC1CC(OC(=O)C=Cc2ccco2)=C(c2c(C)cc(C)cc2C)C1=O (centres unmarked) [1-091]	0 (Herbicidal ratio of 5% or lower (almost no effect))									G: Setaria viridis, herbicidal effect grade [1]: 5 (Herbicidal ratio of 90% or more (almost completely withered)); Q: Galium spurium, herbicidal effect grade [3]: 0 (Herbicidal ratio of 5% or lower (almost no effect)); R: Veronica persica, herbicidal effect grade [4]: 0 (Herbicidal ratio of 5% or lower (almost no effect)); g: rapeseed, effect grade on crop [5]: 3 (Herbicidal ratio of 40% or higher and lower than 70%); N: Amaranthus retroflexus, herbicidal effect (criteria 0-5) [6]: 3 (Herbicidal ratio of 40% or higher and lower than 70%); O: Chenopodium album, herbicidal effect (criteria 0-5) [7]: 0 (Herbicidal ratio of 5% or lower (almost no effect)); R: Veronica persica, herbicidal effect (criteria 0-5) [8]: 1 (Herbicidal ratio of 5% or higher and lower than 20%)
CON=C(C)CC1CC(OC(=O)COc2ccccc2OC)=C(c2c(C)cc(C)cc2C)C1=O (centres unmarked) [1-067]	1 (Herbicidal ratio of 5% or higher and lower than 20%)	5 (Herbicidal ratio of 90% or more (almost completely withered))	0 (Herbicidal ratio of 5% or lower (almost no effect))	0 (Herbicidal ratio of 5% or lower (almost no effect))	4 (Herbicidal ratio of 70% or higher and lower than 90%)	4 (Herbicidal ratio of 70% or higher and lower than 90%)	2 (Herbicidal ratio of 20% or higher and lower than 40%)	3 (Herbicidal ratio of 40% or higher and lower than 70%)		
CON=C(C)CC1CC(OC(=O)C(C)(C)OC(C)=O)=C(c2c(C)cc(C)cc2C)C1=O (centres unmarked) [1-034]	2 (Herbicidal ratio of 20% or higher and lower than 40%)	5 (Herbicidal ratio of 90% or more (almost completely withered))	4 (Herbicidal ratio of 70% or higher and lower than 90%)		5 (Herbicidal ratio of 90% or more (almost completely withered))	3 (Herbicidal ratio of 40% or higher and lower than 70%)	5 (Herbicidal ratio of 90% or more (almost completely withered))		5 (Herbicidal ratio of 90% or more (almost completely withered))	
CC(=O)CC1CC(O)=C(c2c(C)cc(Oc3ccccc3)cc2C)C1=O (centres unmarked) [7-014]										Herbicidal effect grade, G: Setaria viridis [1]: 2 (Herbicidal ratio of 20% or higher and lower than 40%); Herbicidal effect grade, Q: Galium spurium [3]: 0 (Herbicidal ratio of 5% or lower (almost no effect)); Herbicidal effect grade, R: Veronica persica [4]: 0 (Herbicidal ratio of 5% or lower (almost no effect)); Effect on crop grade, g: rapeseed [5]: 0 (Herbicidal ratio of 5% or lower (almost no effect)); N: Amaranthus retroflexus, herbicidal effect (criteria of Test Example 1) [6]: 0 (Herbicidal ratio of 5% or lower (almost no effect)); O: Chenopodium album, herbicidal effect (criteria of Test Example 1) [7]: 0 (Herbicidal ratio of 5% or lower (almost no effect)); R: Veronica persica, herbicidal effect (criteria of Test Example 1) [8]: 0 (Herbicidal ratio of 5% or lower (almost no effect))
CON=C(C)CC1CC(OC(=O)COc2cccc(C#N)c2)=C(c2c(C)cc(C)cc2C)C1=O (centres unmarked) [1-074]	4 (Herbicidal ratio of 70% or higher and lower than 90%)	5 (Herbicidal ratio of 90% or more (almost completely withered))	0 (Herbicidal ratio of 5% or lower (almost no effect))	0 (Herbicidal ratio of 5% or lower (almost no effect))	4 (Herbicidal ratio of 70% or higher and lower than 90%)				0 (Herbicidal ratio of 5% or lower (almost no effect))	N: Amaranthus retroflexus, herbicidal effect (criteria 0-5) [6]: 0 (Herbicidal ratio of 5% or lower (almost no effect)); O: Chenopodium album, herbicidal effect (criteria 0-5) [7]: 2 (Herbicidal ratio of 20% or higher and lower than 40%)
